Laboratory results taken from EP4596574A1, “GLP-1/GCG/GIP TRIPLE-RECEPTOR AGONIST AND USE THEREOF” (Sunshine Lake Pharma Co., Ltd., priority 2022, dated 2024).
pEC50: −log10 of the molar value. Marks after values point to notes of the source that are not given here.

Assays:
[1] = Glucose tolerance assessment in normal C57BL/6 mice (Example 4); assay type: in vivo
Method: Twelve hours after the single administration, the animals were fasted for 12 hours and had free access to water. Blood was collected from the tail vein to determine the basal blood glucose level of each group of animals, and then 2 g/kg glucose solution was injected intraperitoneally. Blood glucose was tested at 15, 30, 60, and 90 min after glucose administration. The blood glucose concentration-time curve was drawn according to the blood glucose values measured at different time points, and the AUC0~90min of each dose group was calculated as shown in Table 4 and Figure 1. Table 4: Effects of single administration of HEC-PT74, HEC-PT75, HEC-PT77, HEC-PT78, HEC-PT80, and HEC-PT82 on glucose tolerance in normal C57 mice 24 h after administration

[2] = target: T1, GLP-1R (Homo sapiens, UniProt P43220); assay: In vitro cell activity, cAMP production in HEK293 cells expressing GLP-1R; assay type: cell-based
T1 construct: expressed in transfected cells; host or cells: HEK293 (HEK293-GLP-1R)
T1 sequence (P43220 24-463, species assumed): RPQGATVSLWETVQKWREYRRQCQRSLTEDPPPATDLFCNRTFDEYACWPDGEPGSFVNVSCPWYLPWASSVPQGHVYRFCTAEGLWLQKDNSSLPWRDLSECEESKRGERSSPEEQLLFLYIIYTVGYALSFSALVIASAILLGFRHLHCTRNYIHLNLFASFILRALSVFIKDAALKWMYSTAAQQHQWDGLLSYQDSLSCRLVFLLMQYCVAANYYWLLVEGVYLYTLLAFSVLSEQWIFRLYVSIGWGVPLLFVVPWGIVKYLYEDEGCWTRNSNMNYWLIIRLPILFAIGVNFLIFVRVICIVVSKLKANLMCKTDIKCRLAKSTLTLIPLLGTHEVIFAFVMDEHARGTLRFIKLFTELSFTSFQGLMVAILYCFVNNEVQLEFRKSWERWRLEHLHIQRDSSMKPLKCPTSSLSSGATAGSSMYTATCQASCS
Outline: (§1)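 HEK293 transfectants, 4×10^5 cells/mL, 384-well. Detection: cAMP-d2 + anti-cAMP cryptate 1:1, RT 1 h dark or 4 °C o/n. Read 665/620 nm; 4-parameter nonlinear fit → EC50.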

[3] = target: T2, GCGR (Homo sapiens, UniProt P47871); assay: In vitro cell activity, cAMP production in HEK293 cells expressing GCGR; assay type: cell-based
T2 construct: expressed in transfected cells; host or cells: HEK293 (HEK293-GCGR)
T2 sequence (P47871 26-477, species assumed): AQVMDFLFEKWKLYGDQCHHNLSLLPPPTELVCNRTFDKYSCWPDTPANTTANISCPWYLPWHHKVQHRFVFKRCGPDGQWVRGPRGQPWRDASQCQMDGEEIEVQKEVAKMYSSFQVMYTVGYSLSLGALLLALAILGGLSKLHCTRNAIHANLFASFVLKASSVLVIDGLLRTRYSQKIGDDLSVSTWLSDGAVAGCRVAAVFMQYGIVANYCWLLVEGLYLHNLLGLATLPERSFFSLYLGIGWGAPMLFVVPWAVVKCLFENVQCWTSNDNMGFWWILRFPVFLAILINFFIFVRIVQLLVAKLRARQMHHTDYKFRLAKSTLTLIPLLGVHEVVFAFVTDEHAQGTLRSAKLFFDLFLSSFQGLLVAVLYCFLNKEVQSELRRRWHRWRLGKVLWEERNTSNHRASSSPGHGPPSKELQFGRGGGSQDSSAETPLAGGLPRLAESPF
Outline: as §1

[4] = target: T3, GIPR (Homo sapiens, UniProt P48546); assay: In vitro cell activity, cAMP production in HEK293 cells expressing GIPR; assay type: cell-based
T3 construct: expressed in transfected cells; host or cells: HEK293 (HEK293-GIPR)
T3 sequence (P48546 22-466): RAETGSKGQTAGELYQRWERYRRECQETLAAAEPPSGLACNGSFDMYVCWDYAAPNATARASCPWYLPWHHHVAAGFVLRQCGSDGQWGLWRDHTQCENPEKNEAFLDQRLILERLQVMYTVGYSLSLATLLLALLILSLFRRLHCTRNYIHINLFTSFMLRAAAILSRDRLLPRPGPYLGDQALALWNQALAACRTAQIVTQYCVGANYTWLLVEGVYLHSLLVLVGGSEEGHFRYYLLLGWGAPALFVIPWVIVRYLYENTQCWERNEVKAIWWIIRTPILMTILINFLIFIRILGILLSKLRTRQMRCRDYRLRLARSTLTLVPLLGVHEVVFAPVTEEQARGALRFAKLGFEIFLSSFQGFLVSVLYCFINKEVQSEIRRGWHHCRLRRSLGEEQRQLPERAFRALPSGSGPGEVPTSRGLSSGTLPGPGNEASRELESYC
Outline: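 HEK293 cells expressing human GIPR, thawed and diluted to 4×10^5 cells/mL, are stimulated with test compound. cAMP is measured by HTRF competition between cAMP-d2 and anti-cAMP cryptate. EC50 comes from a four-parameter nonlinear fit of signal ratio against concentration.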

[5] = In vivo efficacy evaluation in db/db mouse model (blood glucose); set-up: species or system db/db mice
Method: Blood glucose was tested before each administration.

Structure (SMILES): CC[C@H](C)[C@H](NC(=O)[C@H](Cc1ccccc1)NC(=O)[C@H](CCC(=O)O)NC(=O)[C@H](CCC(N)=O)NC(=O)[C@H](CCC(N)=O)NC(=O)[C@H](C)NC(=O)[C@H](CCCCNC(=O)COCCOCCNC(=O)CC[C@H](NC(=O)CCCCCCCCCCCCCCCCC(=O)O)C(=O)O)NC(=O)[C@H](CCC(=O)O)NC(=O)[C@H](CC(=O)O)NC(=O)[C@H](CC(C)C)NC(=O)[C@H](CC(C)C)NC(=O)[C@@H](NC(=O)[C@H](CO)NC(=O)[C@H](Cc1ccc(O)cc1)NC(=O)[C@H](CC(=O)O)NC(=O)[C@H](CO)NC(=O)[C@@H](NC(=O)[C@](C)(Cc1ccccc1F)NC(=O)[C@@H](NC(=O)CNC(=O)[C@H](Cc1c[nH]cn1)NC(=O)C(C)(C)NC(=O)[C@@H](N)Cc1ccc(O)cc1)[C@@H](C)O)[C@@H](C)O)[C@@H](C)CC)C(=O)N[C@@H](CCC(=O)O)C(=O)N[C@@H](Cc1c[nH]c2ccccc12)C(=O)N[C@@H](CC(C)C)C(=O)N[C@@H](CC(C)C)C(=O)N[C@@H](C)C(=O)NCC(=O)NCC(=O)N1CCC[C@H]1C(=O)N[C@@H](CO)C(=O)N[C@@H](CO)C(=O)NCC(=O)N[C@@H](C)C(=O)N1CCC[C@H]1C(=O)N1CCC[C@H]1C(=O)N1CCC[C@H]1C(=O)N[C@@H](CO)C(=O)O [HEC-PT80]
- Blood glucose level (mM) 15 min ([1]; 3 nmol/kg s.c. single dose, 24 h after administration, 15 min after 2 g/kg glucose i.p.): 11.1 ± 2.0 mM
- Blood glucose level (mM) 30 min ([1]; 3 nmol/kg s.c. single dose, 24 h after administration, 30 min after 2 g/kg glucose i.p.): 9.3 ± 1.7 mM
- Blood glucose level (mM) 60 min ([1]; 3 nmol/kg s.c. single dose, 24 h after administration, 60 min after 2 g/kg glucose i.p.): 7.2 ± 1.0 mM
- Blood glucose level (mM) 90 min ([1]; 3 nmol/kg s.c. single dose, 24 h after administration, 90 min after 2 g/kg glucose i.p.): 5.5 ± 0.5 mM
- Blood glucose level (mM) 0 min ([1]; 3 nmol/kg s.c. single dose, 24 h after administration, basal before 2 g/kg glucose i.p.): 4.6 ± 1.1 mM
- improvement of glucose tolerance compared with LY3298176 ([1]; 24 hours after a single administration, 3 nmol/kg): more effective in improving glucose tolerance than the positive control LY3298176
- AUC0-90 min ([1]; blood glucose AUC, 3 nmol/kg s.c. single dose, 24 h after administration, 2 g/kg glucose i.p.): 707.6±98.4^a
- pEC50 [2]: 9.47
- pEC50 [3]: 8.90
- pEC50 [4]: 10.30

Structure (SMILES): CC[C@H](C)[C@H](NC(=O)[C@H](Cc1ccccc1)NC(=O)[C@H](C)NC(=O)[C@H](CCCNC(=N)N)NC(=O)[C@H](CCC(N)=O)NC(=O)[C@H](C)NC(=O)[C@H](CCCCNC(=O)COCCOCCNC(=O)CC[C@H](NC(=O)CCCCCCCCCCCCCCCCCCC(=O)O)C(=O)O)NC(=O)[C@H](CCC(=O)O)NC(=O)[C@H](CC(=O)O)NC(=O)[C@H](CC(C)C)NC(=O)[C@H](CC(C)C)NC(=O)[C@@H](NC(=O)[C@H](CO)NC(=O)[C@H](Cc1ccc(O)cc1)NC(=O)[C@H](CC(=O)O)NC(=O)[C@H](CO)NC(=O)[C@@H](NC(=O)[C@](C)(Cc1ccccc1F)NC(=O)[C@@H](NC(=O)CNC(=O)[C@H](CCC(N)=O)NC(=O)C(C)(C)NC(=O)[C@@H](N)Cc1ccc(O)cc1)[C@@H](C)O)[C@@H](C)O)[C@@H](C)CC)C(=O)N[C@@H](CCC(=O)O)C(=O)N[C@@H](Cc1ccc(O)cc1)C(=O)N[C@@H](CC(C)C)C(=O)N[C@@H](CC(C)C)C(=O)N[C@@H](CCC(=O)O)C(=O)NCC(=O)NCC(=O)N1CCC[C@H]1C(=O)N[C@@H](CO)C(=O)N[C@@H](CO)C(=O)NCC(=O)N[C@@H](C)C(=O)N1CCC[C@H]1C(=O)N1CCC[C@H]1C(=O)N1CCC[C@H]1C(=O)N[C@@H](CO)C(=O)O [HEC-PT85]
- pEC50 [2]: 9.59
- pEC50 [3]: 9.22
- blood glucose after administration ([5]; db/db mice, 10 nmol/kg): significantly reduce blood glucose
- Random blood glucose (mM) D0 ([5]; db/db mice, 10 nmol/kg s.c. once every three days, D0 (before first dose)): 26.2 ± 2.8 mM
- Random blood glucose (mM) D3 ([5]; db/db mice, 10 nmol/kg s.c. once every three days, D3): 11.8 ± 3.6 mM
- Random blood glucose (mM) D4 ([5]; db/db mice, 10 nmol/kg s.c. once every three days, D4): 17.6 ± 3.1 mM
- Random blood glucose (mM) D5 ([5]; db/db mice, 10 nmol/kg s.c. once every three days, D5): 20.2 ± 5.5 mM
- Random blood glucose (mM) D6 ([5]; db/db mice, 10 nmol/kg s.c. once every three days, D6): 17.3 ± 3.4 mM
- Random blood glucose (mM) D7 ([5]; db/db mice, 10 nmol/kg s.c. once every three days, D7): 21.3 ± 3.5 mM
- Random blood glucose (mM) D10 ([5]; db/db mice, 10 nmol/kg s.c. once every three days, D10): 11.8 ± 3.8 mM
- Random blood glucose (mM) D13 ([5]; db/db mice, 10 nmol/kg s.c. once every three days, D13): 14.7 ± 4.9 mM
- Random blood glucose (mM) D16 ([5]; db/db mice, 10 nmol/kg s.c. once every three days, D16): 12.8 ± 3.9 mM
- Random blood glucose (mM) D19 ([5]; db/db mice, 10 nmol/kg s.c. once every three days, D19): 13.7 ± 2.5 mM
- Random blood glucose (mM) D22 ([5]; db/db mice, 10 nmol/kg s.c. once every three days, D22): 17.2 ± 4.2 mM
- Random blood glucose (mM) D25 ([5]; db/db mice, 10 nmol/kg s.c. once every three days, D25): 15.7±4.5^a mM
- Random blood glucose (mM) 6 h ([5]; db/db mice, 10 nmol/kg s.c., 6 h): 15.3 ± 5.4 mM
- Random blood glucose (mM) 24 h ([5]; db/db mice, 10 nmol/kg s.c., 24 h): 10.1 ± 3.7 mM
- Random blood glucose (mM) 48 h ([5]; db/db mice, 10 nmol/kg s.c., 48 h): 12.9 ± 4.2 mM
- time at which blood glucose levels reached the lowest level ([5]; db/db mice, 10 nmol/kg, after administration): about 24 hours
- blood glucose lowering after long-term administration compared with LY3298176 ([5]; db/db mice, long-term repeated administration): not inferior to the positive control LY3298176
- blood glucose reducing effect after administration compared with LY3298176 ([5]; db/db mice, same dose 10 nmol/kg): slightly better than the positive control LY3298176
- blood glucose level after long-term administration ([5]; type II diabetes model db/db mice): significantly improve the blood glucose level
- pEC50 [4]: 9.63
